{
  "source": "patent US20150284362A1",
  "about": "“CARBAZOLE-CONTAINING AMIDES, CARBAMATES, AND UREAS AS CRYPTOCHROME MODULATORS” (ReSet Therapeutics, Inc., priority 2014, published 2015)",
  "key": {"[1]": {"test_system": "C57/Bl6J DIO mice", "test": "Increasing dosages of Compound 72 over 7 days in diet-induced obesity (DIO) mouse model", "type": "in vivo", "settings": "10, 30, 100 mg/kg PO QD 7 days", "from_the_text": "(§1) Male C57/Bl6J DIO mice were obtained from The Jackson Laboratory (Sacramento, Calif.). […] Animals were accustomed to these conditions for at least 2 weeks before experimentation and used at approximately 24 weeks of age.\n(§2) Significance was accepted when p<0.05.\nMale C57/Bl6J DIO mice were obtained from The Jackson Laboratory (Sacramento, Calif.). […] Animals were accustomed to these conditions for at least 2 weeks before experimentation and used at approximately 26 weeks of age."}, "[2]": {"test_system": "core clock gene mRNAs in liver", "test": "Four day study, liver core clock gene mRNA, ICR mice", "type": "in vivo, mouse", "settings": "50 mg/kg PO BID 4 days, ZT6", "experimental": "Male ICR mice (weighing 30-35 g), obtained from Charles River Laboratories (Hollister, Calif.), were used for the experiment following at least 3 days of acclimation. Mice were dosed with vehicle (WFI or 10% Kolliphor) or compound (50 mg/kg, dose volume 5 mL/kg, PO) for 4 days BID (twice a day), beginning in the afternoon of the first day. The last dose of compound or vehicle was administered on the morning of harvest. On the day of harvest (6 hours following the final dose), mice were euthanized by CO2 asphyxiation and 50 mg of liver tissue was excised and placed in a tube containing 500 μl of RNA later.\nE.Z.N.A.® HP Total RNA Isolation Kits (R6812-01 and the protocol described in the Manual, Revised 2010) were utilized to prepare and isolate RNA from the liver samples. To prepare the RNA samples, 10-30 mg of sample was removed from RNA-Later and placed in a 1.5 ml microfuge tube. […] The cleared supernatant was transferred by pipetting to a DNA Clearance Column Pre-inserted in a 2 mL Collection Tube. The assembled column was centrifuged at 13,000×g for 1 minute, and the flow-through was saved. An equal volume (700 μl) of 70% ethanol was added to the lysate and mixed. The sample was then applied to a HiBind RNA spin column placed into a 2 ml collection tube, which was centrifuged at 10,000×g for 60 seconds at room temperature. RNA Wash Buffer I (250 μl) was added by pipetting directly onto a new HiBind RNA column inserted in a 2 ml collection tube. The assembled column was centrifuged at 10,000×g for 60 seconds. The RNA column was placed into a new 2 ml collection tube. […] The column with bound RNA was incubated at room temperature (25-30° C.) for 15 minutes. RNA Wash Buffer I (500 μl) was added to the column and placed on a bench top for 2 minutes. After centrifuging at 10,000×g for 60 seconds, discarding the flow-through, 500 μl of RNA Wash Buffer II was added and centrifuged at 10,000×g for 60 seconds. Another 500 μl of RNA Wash Buffer II was added and the column assembly was centrifuged at 10,000×g for 60 seconds. The column was centrifuged for 2 minutes at maximum speed to completely dry the HiBind matrix. The column was placed in a clean 1.5 ml microcentrifuge tube and 40-70 μl of molecular biology grade water is added. After sitting for 1 minute, the column was centrifuged for 2 minutes at maximum speed to elute the RNA. The isolated RNA was collected into the collection tube.\nRediPlate 96 RiboGreen RNA Quantification Kit (Invitrogen) RediPlate standard curve was prepared by transferring 20 μl reconstituted RNA standard to a RediPlate well reconstituted in 180 μl RediPlate TE buffer. For liver RNAs prepared from 30-100 mg of tissue using a kit similar to the Omega Bio-Tek HP Total RNA Kit and eluted in RNAse-free water in a volume of 50 μl (microliters), 5 μl of the total RNA is diluted in 195 μl of RediPlate TE buffer (1:40 dilution of RNA), mix. […] Alternatively, one can use the FlexStation 3 with Ex 488 nm and Em 525 nm and a Cutoff of 515 nm."}, "[3]": {"test_system": "db/db mice", "test": "Single dose at peak or nadir of clock gene expression, OGTT in db/db mouse model of type II diabetes", "type": "in vivo", "settings": "single dose 50 mg/kg PO at peak (ZT0) of Cry1 and Bmal1 expression", "from_the_text": "Mice were split into two study arms, to be dosed at either the peak or nadir of Cry1 and Bmal1 gene expression. […] Mice dosed at ZT10 were fasted beginning at 8:30 am in the same manner.\nas §2"}, "[4]": {"test_system": "db/db mice", "test": "Increasing dosages of Compound 72 over 7 days in db/db mouse model of type II diabetes", "type": "in vivo", "settings": "10, 50, 100 mg/kg PO QD 7 days", "from_the_text": "as §2"}, "[5]": {"test_system": "C57/Bl6J DIO mice", "test": "7 day dosing in diet-induced obesity (DIO) mouse model of type II diabetes", "type": "in vivo", "settings": "100 mg/kg PO QD 7 days", "from_the_text": "as §1, §2"}},
  "data": [
    {"smiles": "O=C1NCCN1CC(O)Cn1c2ccc(F)cc2c2cc(F)ccc21", "note": "(stereo not drawn) [Compound 72, 1-(3-(3,6-difluoro-9H-carbazol-9-yl)-2-hydroxypropyl)imidazolidin-2-one]", "values": [
      {"measurement": "OGTT glucose excursion following a glucose load", "setting": "[1]", "result": "reduction in glucose excursion"},
      {"measurement": "Cry2 transcripts in liver", "setting": "[2]", "result": "decrease"},
      {"measurement": "liver Per2 expression", "setting": "[2]", "result": "suppression"},
      {"measurement": "effect on OGTT measurement", "setting": "[3]", "result": "apparent effect"},
      {"measurement": "OGTT glucose excursion following a glucose load", "setting": "[4]", "result": "dose dependent effect on glucose excursion"},
      {"measurement": "OGTT glucose vs vehicle control group", "setting": "[5]", "result": "much lower than the vehicle control group"}
    ]}
  ]
}
